According to ChEMBL document CHEMBL5726641, “Inhibitors of lysine methyl transferase” (2017):

Each compound was assayed against Histone-lysine N-methyltransferase EZH2 (Homo sapiens, UniProt Q15910, Y641F) (assay: Biological Assay: EZH2 Histone Methyl Transferase Assay: The effectiveness of compounds of the present invention as inhibitors of histone methyl transferases can be readily tested by assays known to those skilled in the art. For example, in vitro histone methyl transferase assays may be conducted with a relevant purified histone methyl transferase and an appropriate synthetic substrate to determine the inhibitory activity of the compounds. Assays for inhibition of EZH2 by the instant compounds were performed in 384-well plates with reaction mixtures containing 350 nM of histone peptide substrate (ATKAAR-K(Me2)-SAPATGGVKKPHRYRPG-GK(Biotin), 500 nM S-[methyl-3H]adenosyl-L-methionine (55-85 Ci/mmol), 50 mM Tris-HCl (pH 9.0), 50 mM NaCl, 1 mM dithiothreitol, Tween-20 at 0.01% and fatty-acid free bovine serum albumin at 0.01%, and recombinant EZH2-641F complex (EZH2 Y641F/EED/SUZ12/RbAp48/AEBP2) at 5 nM (>98% purity, BPS Bioscience) or 15 nM (50% purity, in-house). Reaction mixtures were incubated at room temperature for 3 hours, and the reactions were terminated by 0.005% poly-L-lysine solution in 20 mM Tris-HCl (pH 7.5) and 150 mM NaCl. Reaction products were captured by binding to strepavidin-conjugated imaging beads. Incorporation of radioactive methyl group into the histone peptide substrate was determined in Leadseeker (GE Healthcare) by means of scintillation proximity assay.).
Chain of Histone-lysine N-methyltransferase EZH2 (Q15910 whole entry Y641F): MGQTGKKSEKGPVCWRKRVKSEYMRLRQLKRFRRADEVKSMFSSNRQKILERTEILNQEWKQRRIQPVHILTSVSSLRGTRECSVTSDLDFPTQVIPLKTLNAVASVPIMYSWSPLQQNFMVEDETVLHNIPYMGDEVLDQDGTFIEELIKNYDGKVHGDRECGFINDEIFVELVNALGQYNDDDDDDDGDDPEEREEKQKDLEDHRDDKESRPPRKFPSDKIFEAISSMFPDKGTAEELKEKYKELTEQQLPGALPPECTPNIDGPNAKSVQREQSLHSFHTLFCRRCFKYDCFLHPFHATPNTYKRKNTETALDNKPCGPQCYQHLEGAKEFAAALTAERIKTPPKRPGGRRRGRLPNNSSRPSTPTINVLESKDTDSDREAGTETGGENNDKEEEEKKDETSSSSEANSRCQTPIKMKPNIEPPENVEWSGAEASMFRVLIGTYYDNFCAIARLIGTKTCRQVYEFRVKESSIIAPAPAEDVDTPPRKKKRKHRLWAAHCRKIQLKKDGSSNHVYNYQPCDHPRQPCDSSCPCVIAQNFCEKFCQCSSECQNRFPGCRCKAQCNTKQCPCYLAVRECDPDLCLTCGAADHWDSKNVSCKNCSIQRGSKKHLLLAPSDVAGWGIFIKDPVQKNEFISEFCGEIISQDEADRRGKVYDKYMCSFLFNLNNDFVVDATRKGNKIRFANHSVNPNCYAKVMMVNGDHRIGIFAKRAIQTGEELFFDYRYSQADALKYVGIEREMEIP

SMILES | IC50 [nM]
CCCc1cc(C)[nH]c(=O)c1CNC(=O)c1cc2c(c(-c3ccc(N4CCNCC4)nc3)c1)OC(C)(C(C)C)C2 (centres undefined) | < 500
C=C(C)C1(C)Cc2cc(C(=O)NCc3c(C)cc(C)[nH]c3=O)cc(-c3ccc(N4CCNCC4)nc3)c2O1 (centres undefined) | < 500
Cc1cc(C)c(CNC(=O)c2cc3c(c(C(F)(F)F)c2)OC(C)(C)C3)c(=O)[nH]1 | > 1000
Cc1cc(C)c(CNC(=O)c2cc(Br)c3c(c2)OC/C=C\CO3)c(=O)[nH]1 | > 1000
C=C(C)C1(C)Cc2cc(C(=O)NCc3c(CCC)cc(C)[nH]c3=O)cc(-c3ccc(N4CCNCC4)nc3)c2O1 (centres undefined) | < 500
COc1ccc(-c2cc(C(=O)NCc3c(C)cc(C)[nH]c3=O)cc3c2OC(C)(C(C)C)C3)cn1 (centres undefined) | > 1000
COc1ccc(-c2cc(C(=O)NCc3c(C)cc(C)[nH]c3=O)cc3c2OCC3(C)C)cn1 | > 1000
C=C(C)C1(C)Cc2cc(C(=O)NCc3c(CCC)cc(C)[nH]c3=O)cc(-c3cnc(N4CCNCC4)nc3)c2O1 (centres undefined) | < 500
CCC1COc2cc(C(=O)NCc3c(C)cc(C)[nH]c3=O)cc(-c3ccc(N4CCNCC4)nc3)c2O1 (centres undefined) | > 1000
